This is an account of results in paper PMC8183095, “Uncovering the chemistry of C–C bond formation in C-nucleoside biosynthesis: crystal structure of a C-glycoside synthase/PRPP complex” (Chemical Communications (Cambridge, England), 2020).

A word on the Kd: it is the constant that tells how readily two partners part at equilibrium. The term stoichiometry N denotes the number of molecules, sites or subunits per partner or assembly.

Some results are limits rather than exact numbers.

Assay [1] addresses T1, ForT (Streptomyces kaniharaensis, UniProt A0A5S9CYM0).
T1 sequence (A0A5S9CYM0 1-341): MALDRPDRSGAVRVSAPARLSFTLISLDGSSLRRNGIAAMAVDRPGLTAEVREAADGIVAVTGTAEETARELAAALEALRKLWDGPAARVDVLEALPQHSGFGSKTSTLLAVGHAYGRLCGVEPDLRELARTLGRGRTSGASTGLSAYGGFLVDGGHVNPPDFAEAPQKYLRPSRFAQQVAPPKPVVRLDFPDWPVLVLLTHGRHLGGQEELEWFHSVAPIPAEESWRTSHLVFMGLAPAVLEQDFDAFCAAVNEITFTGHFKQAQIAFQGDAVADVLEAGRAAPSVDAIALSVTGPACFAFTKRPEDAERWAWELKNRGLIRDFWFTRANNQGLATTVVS
In words: biochemical. Further details: gene cof6.

Assay [2] has as its target T2, ForT (Streptomyces kaniharaensis, UniProt A0A5S9CYM0, G134P).
T2 construct: gene cof6
Description: biochemical.

For assay [3], the target named is T1, ForT. Description: LCMS product detection; membrane-inlet mass spectrometry of CO2 production. Conditions: co-substrate PRPP; Mg2+ apparently needed. Further details: gene cof6; recombinant wild type, expressed in and purified from Escherichia coli; residues 11-171, 180-205, 209-341 (C-terminus) seen in the crystal; dimer in solution. Format: biochemical.
The target of assay [4] is ForT (wild type), C-glycoside synthase from Streptomyces kaniharaensis (Streptomyces kaniharaensis). In words: SEC-MALS; gel filtration and multi-angle light scattering of ForT in solution. On the technique in general: SEC sorts molecules by how far they enter the pores of the column.

T2 sequence (A0A5S9CYM0 entry or part of it G134P): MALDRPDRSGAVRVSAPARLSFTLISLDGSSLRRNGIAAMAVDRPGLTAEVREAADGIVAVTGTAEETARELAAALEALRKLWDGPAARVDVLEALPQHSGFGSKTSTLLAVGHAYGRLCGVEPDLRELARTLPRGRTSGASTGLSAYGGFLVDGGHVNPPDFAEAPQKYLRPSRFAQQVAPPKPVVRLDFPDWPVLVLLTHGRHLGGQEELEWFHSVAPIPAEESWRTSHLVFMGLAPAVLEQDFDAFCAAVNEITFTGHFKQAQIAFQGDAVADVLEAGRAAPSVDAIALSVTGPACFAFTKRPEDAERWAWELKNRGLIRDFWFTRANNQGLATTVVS

Turning to `O=P(O)(O)OC[C@H]1O[C@H](OP(=O)(O)OP(=O)(O)O)[C@H](O)[C@@H]1O` [compound 4, PRPP], the results for the Kd at ForT [1] and on ForT [2] were 4 µM and greater than 200 µM, respectively. With `Nc1c(C(=O)O)n[nH]c1C(=O)O` [compound 5, 4-amino-1H-pyrazole-3,5-dicarboxylate], on ForT [3], the “LCMS product detection; membrane-inlet mass spectrometry of CO2 production” value is “LCMS confirmed formation of the expected product when the enzyme was incubated with PRPP”. Consider “ForT (wild type), C-glycoside synthase from Streptomyces kaniharaensis (enzyme)”, for which the stoichiometry N in assay [4] was determined as 2.
